Laboratory results: PubChem BioAssay (NCI)
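All cell lines were grown in 96-well plates and treated with compound for 48 hours. Here, GI50 denotes the concentration required for 50% inhibition of growth. Definition used: TGI = concentration required for complete inhibition of growth.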

The compounds below were run on SK-MEL-2 melanoma (assay: growth of human tumour cells (NCI), 48 h).

Which TGI does the source give for COc1cc(/C=C2\CN(C)CC3=C2NC(=S)NC3c2cc(OC)c(OC)c(OC)c2)cc(OC)c1OC (configuration not stated) here?
The TGI was over 100 µM.

For CC(C)(C)[Si](C)(C)OCC1OC(n2cc(I)c(N)nc2=O)C(O[Si](C)(C)C(C)(C)C)C1O[Si](C)(C)C(C)(C)C (configuration not stated), which TGI is on record?
The TGI was 25.7 µM.

How did the TGI turn out when COc1cc(O)c2c(c1)OCC(Cc1ccc(O)cc1)C2=O (configuration not stated) was run?
The TGI was over 100 µM.

Which GI50 does the source give for Cc1ccc2c3c(c(=O)[nH]c2c1)C1(C(C#N)=C(N)O3)c2cc(Br)ccc2-c2ccc(Br)cc21 here?
Its GI50 is 2.52 µM.

And the TGI?
Its TGI is 6.72 µM.

What follows are compounds tested on SW-620 colon (assay: growth of human tumour cells (NCI), 48 h).

How did the TGI turn out when CCOC(=O)C1(C(=O)OCC)C[C@H](C)[C@](C)(O)C1 was run?
The TGI was over 100 µM.

COc1cc2c3c(n(CCNCCCNCCn4c5c(c6cc(OC)c(OC)cc6c4=O)C(=O)c4ccccc4-5)c(=O)c2cc1OC)-c1ccccc1C3=O was tested. Which GI50 did it give?
The GI50 was 0.261 µM.

What about the TGI of the same compound?
Its TGI is 11.8 µM.

COc1cc(/C=C2\CN(C)CC3=C2NC(=S)NC3c2cc(OC)c(OC)c(OC)c2)cc(OC)c1OC (configuration not stated) was tested. Which TGI did it give?
The TGI was over 100 µM.

With CC(C)(C)[Si](C)(C)OCC1OC(n2cc(I)c(N)nc2=O)C(O[Si](C)(C)C(C)(C)C)C1O[Si](C)(C)C(C)(C)C (configuration not stated) as the compound, how does the TGI read?
The TGI was over 100 µM.

For COc1cc(O)c2c(c1)OCC(Cc1ccc(O)cc1)C2=O (configuration not stated), which TGI is on record?
Its TGI is over 100 µM.

How did the GI50 turn out when Cc1ccc2c3c(c(=O)[nH]c2c1)C1(C(C#N)=C(N)O3)c2cc(Br)ccc2-c2ccc(Br)cc21 was run?
Its GI50 is 1.86 µM.

What about the TGI of the same compound?
The TGI was 4.22 µM.

These compounds were tested on HOP-92 NSCLC (assay: growth of human tumour cells (NCI), 48 h).

With CCOC(=O)C1(C(=O)OCC)C[C@H](C)[C@](C)(O)C1 as the compound, how does the TGI read?
Its TGI is over 100 µM.

Which results are given for COc1cc2c3c(n(CCNCCCNCCn4c5c(c6cc(OC)c(OC)cc6c4=O)C(=O)c4ccccc4-5)c(=O)c2cc1OC)-c1ccccc1C3=O?
GI50: 0.0656 µM; TGI: 0.556 µM

COc1cc(/C=C2\CN(C)CC3=C2NC(=S)NC3c2cc(OC)c(OC)c(OC)c2)cc(OC)c1OC (configuration not stated) was tested. Which TGI did it give?
The TGI was over 100 µM.

CC(C)(C)[Si](C)(C)OCC1OC(n2cc(I)c(N)nc2=O)C(O[Si](C)(C)C(C)(C)C)C1O[Si](C)(C)C(C)(C)C (configuration not stated) was tested. Which TGI did it give?
The TGI was 37.1 µM.

Which TGI does the source give for COc1cc(O)c2c(c1)OCC(Cc1ccc(O)cc1)C2=O (configuration not stated) here?
Its TGI is over 100 µM.

With Cc1ccc2c3c(c(=O)[nH]c2c1)C1(C(C#N)=C(N)O3)c2cc(Br)ccc2-c2ccc(Br)cc21 as the compound, how does the GI50 read?
The GI50 was 1.38 µM.

And the TGI?
The TGI was 3.15 µM.

These compounds were tested on CAKI-1 renal (assay: growth of human tumour cells (NCI), 48 h).

With CCOC(=O)C1(C(=O)OCC)C[C@H](C)[C@](C)(O)C1 as the compound, how does the TGI read?
The TGI was over 100 µM.

COc1cc2c3c(n(CCNCCCNCCn4c5c(c6cc(OC)c(OC)cc6c4=O)C(=O)c4ccccc4-5)c(=O)c2cc1OC)-c1ccccc1C3=O was tested. Which GI50 did it give?
Its GI50 is over 100 µM.

What about the TGI of the same compound?
Its TGI is over 100 µM.

With COc1cc(O)c2c(c1)OCC(Cc1ccc(O)cc1)C2=O (configuration not stated) as the compound, how does the TGI read?
The TGI was over 100 µM.

How did the GI50 turn out when Cc1ccc2c3c(c(=O)[nH]c2c1)C1(C(C#N)=C(N)O3)c2cc(Br)ccc2-c2ccc(Br)cc21 was run?
The GI50 was 1.56 µM.

What about the TGI of the same compound?
Its TGI is 3.23 µM.

Each compound was assayed on SF-295 CNS (assay: growth of human tumour cells (NCI), 48 h).

Which TGI does the source give for CCOC(=O)C1(C(=O)OCC)C[C@H](C)[C@](C)(O)C1 here?
Its TGI is over 100 µM.

With COc1cc2c3c(n(CCNCCCNCCn4c5c(c6cc(OC)c(OC)cc6c4=O)C(=O)c4ccccc4-5)c(=O)c2cc1OC)-c1ccccc1C3=O as the compound, how does the GI50 read?
Its GI50 is 0.105 µM.

And the TGI?
Its TGI is 2.11 µM.

For COc1cc(/C=C2\CN(C)CC3=C2NC(=S)NC3c2cc(OC)c(OC)c(OC)c2)cc(OC)c1OC (configuration not stated), which TGI is on record?
The TGI was over 100 µM.

How did the TGI turn out when CC(C)(C)[Si](C)(C)OCC1OC(n2cc(I)c(N)nc2=O)C(O[Si](C)(C)C(C)(C)C)C1O[Si](C)(C)C(C)(C)C (configuration not stated) was run?
The TGI was 11.2 µM.

COc1cc(O)c2c(c1)OCC(Cc1ccc(O)cc1)C2=O (configuration not stated) was tested. Which TGI did it give?
The TGI was over 100 µM.

Which results are given for Cc1ccc2c3c(c(=O)[nH]c2c1)C1(C(C#N)=C(N)O3)c2cc(Br)ccc2-c2ccc(Br)cc21?
GI50: 1.82 µM; TGI: 3.71 µM

These compounds were tested on LOX IMVI melanoma (assay: growth of human tumour cells (NCI), 48 h).

How did the TGI turn out when CCOC(=O)C1(C(=O)OCC)C[C@H](C)[C@](C)(O)C1 was run?
Its TGI is over 100 µM.

Which results are given for COc1cc2c3c(n(CCNCCCNCCn4c5c(c6cc(OC)c(OC)cc6c4=O)C(=O)c4ccccc4-5)c(=O)c2cc1OC)-c1ccccc1C3=O?
GI50: 0.0293 µM; TGI: 0.413 µM

With COc1cc(/C=C2\CN(C)CC3=C2NC(=S)NC3c2cc(OC)c(OC)c(OC)c2)cc(OC)c1OC (configuration not stated) as the compound, how does the TGI read?
Its TGI is over 100 µM.

CC(C)(C)[Si](C)(C)OCC1OC(n2cc(I)c(N)nc2=O)C(O[Si](C)(C)C(C)(C)C)C1O[Si](C)(C)C(C)(C)C (configuration not stated) was tested. Which TGI did it give?
Its TGI is over 100 µM.

How did the TGI turn out when COc1cc(O)c2c(c1)OCC(Cc1ccc(O)cc1)C2=O (configuration not stated) was run?
The TGI was over 100 µM.

Which results are given for Cc1ccc2c3c(c(=O)[nH]c2c1)C1(C(C#N)=C(N)O3)c2cc(Br)ccc2-c2ccc(Br)cc21?
GI50: 1.68 µM; TGI: 3.25 µM

What follows are compounds tested on OVCAR-8 ovarian (assay: growth of human tumour cells (NCI), 48 h).

Which TGI does the source give for CCOC(=O)C1(C(=O)OCC)C[C@H](C)[C@](C)(O)C1 here?
The TGI was over 100 µM.

COc1cc2c3c(n(CCNCCCNCCn4c5c(c6cc(OC)c(OC)cc6c4=O)C(=O)c4ccccc4-5)c(=O)c2cc1OC)-c1ccccc1C3=O was tested. Which GI50 did it give?
The GI50 was 0.0355 µM.

And the TGI?
Its TGI is 5.82 µM.

Which TGI does the source give for COc1cc(/C=C2\CN(C)CC3=C2NC(=S)NC3c2cc(OC)c(OC)c(OC)c2)cc(OC)c1OC (configuration not stated) here?
Its TGI is over 100 µM.

For CC(C)(C)[Si](C)(C)OCC1OC(n2cc(I)c(N)nc2=O)C(O[Si](C)(C)C(C)(C)C)C1O[Si](C)(C)C(C)(C)C (configuration not stated), which TGI is on record?
The TGI was 30.6 µM.

COc1cc(O)c2c(c1)OCC(Cc1ccc(O)cc1)C2=O (configuration not stated) was tested. Which TGI did it give?
The TGI was over 100 µM.

For Cc1ccc2c3c(c(=O)[nH]c2c1)C1(C(C#N)=C(N)O3)c2cc(Br)ccc2-c2ccc(Br)cc21, which GI50 is on record?
The GI50 was 3.02 µM.

And the TGI?
The TGI was 8.62 µM.

Each compound was assayed on EKVX NSCLC (assay: growth of human tumour cells (NCI), 48 h).

How did the TGI turn out when CCOC(=O)C1(C(=O)OCC)C[C@H](C)[C@](C)(O)C1 was run?
Its TGI is over 100 µM.
